Reference: article PMC7707092, “Discovery and characterization of ORM‐11372, a novel inhibitor of the sodium‐calcium exchanger with positive inotropic activity” (British Journal of Pharmacology, 2020)
In brackets after ≈: the same amount, converted by molar mass. Read-outs that look alike come from different tables or passages of the source.

Legend:
NCX = tested on: NCX; parameters: method as in Jost et al., 2013; Kohajda et al., 2016; conditions: Dog, reference not given, ref Jost et al., 2013, Kohajda et al., 2016, cited from earlier work
human NCX 1.1 = target: T1, human NCX 1.1 (Homo sapiens, UniProt P32418); assay: Fluorescence screening assay for hNCX 1.1 inhibition (reverse mode, Sf9 cells); assay type: cell-based; conditions: for IC50: Sf9 cells expressing human NCX1.1, reverse mode, fluorescence, n=3 assays
T1 construct: expressed in transfected cells
Experimental: Spodoptera frugiperda (Sf9; RRID:CVCL_0549) cells are widely used for the transient and stable expression of recombinant proteins. Here, Sf9 cells were stably transfected with human NCX 1.1 and maintained in spinner flasks with insect cell culture medium (TNM‐FH), supplemented with 10% FBS, antibiotic–antimycotic solution, and 50 μg·ml^−1 of blasticidin at 28°C in a non‐humidified, CO2‐free atmosphere. The Sf9 cell suspension was subcultured three times a week.
NCX reverse mode activity was stimulated via a 50% dilution of the extracellular Na^+ level using the internal pipettor of FLEXstation, a fluorescence imaging plate reader (Molecular Devices, USA), while simultaneously monitoring intracellular calcium levels. After dilution, the concentration of other ions remained the same, but Na^+ concentration was diluted to the half of original concentration of 172 to 86 mM. For Sf9 insect cells, normal extracellular Na^+ ion concentration is 172 mM. Typically, 50 μl of a solution containing 150,000–200,000 Sf9–NCX cells was loaded onto each well of a 96‐well plate. Cells were preincubated with the intracellular calcium dye Fluo‐4 and Fluo‐6, and the concentrations of the test compound (three replicates) were determined for about 1 h at room temperature before experimentation. The extracellular solution contained (in mM) 172 NaCl, 10 HEPES, 1 CaCl2, 1.2 MgCl2, 0.33 NaH2PO4, 5 glucose, and 5 probenecid. The pH was adjusted to 7.4 with NaOH. The extracellular Na^+ was diluted by the addition of a Na^+‐free extracellular solution (containing in mM: 147 N‐methyl‐D‐glucamine (NMDG), 10 HEPES, 1 CaCl2, 1.2 MgCl2, 0.33 NaH2PO4, and 5 glucose with the pH adjusted by HCl to 7.4)‐induced robust and reproducible elevation of intracellular calcium. The osmolarity of both solutions was adjusted to 340–355 mOsm in order to match the Sf9 cell media osmolarity. In each plate, the IC50 determination for each test compound was based on relative fluorescence changes in comparison with control and 5‐mM nickel acetate‐induced NCX inhibition.

hNCX1 = hNCX1 (Homo sapiens, UniProt P32418); assay: Confirmatory fluorescence assay for hNCX1 inhibition (forward mode, HEK293 cells, Charles River); assay type: cell-based; conditions: HEK293, forward mode, Table S2; read-out: hNCX1-HEK IC50
Experimental: A confirmatory hNCX1 inhibition assay was performed in Charles River Laboratories, Cleveland. Briefly, HEK293 cells stably expressing hNCX1 were plated in 384‐well black wall, clear‐bottom microtitre plates and the next day loaded with Fluo‐8 for 30 min at 37°C. A plate was inserted into a FLIPR^TETRA, and a baseline was recorded during a preincubation period where test compound or vehicle in a Na^+‐free HB‐PS containing thapsigargin (6 μM) and […] (30 μM) was added to each well for ~5 min. Next, the NCX1 stimulation period was recorded in which Na^+‐containing HB‐PS (with 2‐μM thapsigargin and 10‐μM FCCP) was added. The experiments were performed at room temperature. The kinetic data generated were reduced for each well to maximum relative fluorescence units (RFU) minus minimum RFU after subtracting bias based on the first sample. The mean of the max–min RFU values during the stimulation period for the 3–4 replicates at each concentration on a plate was then plotted versus concentration and fitted to a Hill equation.

Solubility = assay type: physicochemical; conditions: pH 7.4 phosphate buffer; for solubility: phosphate buffer, pH 7.4, aqueous buffer
hERG = hERG (Homo sapiens, UniProt Q12809); assay: hERG IC50 of Table 1 / Table S2 (method not assigned); assay type: cell-based; conditions: n=4 assays
Chain of hERG (Q12809 whole entry): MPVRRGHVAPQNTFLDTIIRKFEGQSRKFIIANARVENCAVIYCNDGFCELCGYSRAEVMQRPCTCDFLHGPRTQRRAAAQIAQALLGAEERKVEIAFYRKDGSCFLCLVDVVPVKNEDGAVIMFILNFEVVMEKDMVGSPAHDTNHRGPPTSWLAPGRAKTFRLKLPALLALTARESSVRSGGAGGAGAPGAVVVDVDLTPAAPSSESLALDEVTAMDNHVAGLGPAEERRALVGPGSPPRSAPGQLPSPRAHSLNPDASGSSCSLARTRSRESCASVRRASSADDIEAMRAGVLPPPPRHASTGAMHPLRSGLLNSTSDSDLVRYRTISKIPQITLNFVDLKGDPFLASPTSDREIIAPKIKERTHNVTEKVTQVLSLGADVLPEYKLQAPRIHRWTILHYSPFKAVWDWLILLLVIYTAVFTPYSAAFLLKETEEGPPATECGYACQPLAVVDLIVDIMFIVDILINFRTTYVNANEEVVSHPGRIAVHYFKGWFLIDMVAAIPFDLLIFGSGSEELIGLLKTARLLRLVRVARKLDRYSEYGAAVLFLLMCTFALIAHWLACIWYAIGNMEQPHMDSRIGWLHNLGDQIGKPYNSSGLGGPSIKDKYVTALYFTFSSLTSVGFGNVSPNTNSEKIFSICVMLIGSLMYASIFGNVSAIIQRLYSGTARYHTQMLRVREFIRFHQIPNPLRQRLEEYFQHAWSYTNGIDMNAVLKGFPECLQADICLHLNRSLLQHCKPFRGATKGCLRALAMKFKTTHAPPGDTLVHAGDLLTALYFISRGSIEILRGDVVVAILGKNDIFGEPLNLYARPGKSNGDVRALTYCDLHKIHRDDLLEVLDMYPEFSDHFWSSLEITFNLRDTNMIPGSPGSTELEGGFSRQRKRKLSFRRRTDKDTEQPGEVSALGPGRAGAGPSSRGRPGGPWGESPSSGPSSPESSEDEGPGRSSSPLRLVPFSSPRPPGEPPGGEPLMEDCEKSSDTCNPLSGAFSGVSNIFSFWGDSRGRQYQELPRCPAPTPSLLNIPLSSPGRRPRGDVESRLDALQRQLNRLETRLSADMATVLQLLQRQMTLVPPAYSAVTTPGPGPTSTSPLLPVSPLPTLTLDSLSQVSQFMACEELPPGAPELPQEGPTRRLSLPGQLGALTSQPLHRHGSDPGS

L‐type calcium channel = L‐type calcium channel inhibition, fluorescence assay in IMR‐32 cells; assay type: cell-based, human; conditions: KCl depolarization, n=4 assays, read-out: L‐type Ca^2+ IC50
Experimental: CHO cells stably expressing either hERG1a (KV11.1) channels (KCNH2; RRID:CVCL_H512) or human 5‐HT2B receptors were cultured at 37°C in a 5% CO2/95% air atmosphere in the Ham's Nutrient Mixture F‐12 (HAM F‐12) medium supplemented with 10% FBS (heat inactivated), 100 μg·ml^−1 of hygromycin B (Invitrogen), and 100 μg·ml^−1 of geneticin or 100 IU·ml^−1 of penicillin and 100 IU·ml^−1 of streptomycin, 25‐mM HEPES, 500 μg·ml^−1 of geneticin, and 250 μg·ml^−1 of Zeocin®. Adhered cells were detached using either Detachin® solution or trypsin and replated twice a week. HEK 293 (RRID:CVCL_0045) and IMR‐32 cells (CCL‐127; RRID:CVCL_0346) were cultured similarly but maintained instead in DMEM, supplemented with 10% FBS (heat inactivated), 100 IU·ml^−1 of penicillin and 100 IU·ml^−1 of streptomycin, and 25‐mM HEPES, and in the case of the IMR‐32 cell line, with minimum essential medium (MEM) non‐essential amino acids. IMR‐32 cells are derived from a human neuroblastoma and endogenously express L‐type (CaV1.x) calcium channel (Sher, Gotti, Pandiella, Madeddu, & Clementi, 1988).
Undifferentiated IMR‐32 cells were harvested, centrifuged, and resuspended in a probenecid‐Ringer solution consisting (in mM) 150 NaCl, 3 KCl, 1.2 MgCl2, 1 CaCl2, 20 HEPES, 5 glucose and 2.5 probenecid (pH 7.4 adjusted with NaOH, osmolarity 320–324 mOsm). We added 0.04% Pluronic F‐127 and Fluo‐4 to this solution, and after incubating the cells for 30 min at room temperature, these additives were removed from the probenecid‐Ringer solution by centrifugation and resuspension. The cell suspension was pipetted (250,000 cells in 75 μl per well) into a 96‐well plate, into which the test compound (75 μl per well at […] the final concentration; five concentrations with eight replicates) had already been added. The plate was centrifuged once (5 min, at 287 x g) to ensure that the cells were moved to the bottom of the wells. FLEXstation was then used to measure the increase in intracellular calcium at 37°C, following depolarization, which was induced by the addition (50 μl per well) of a KCl‐Ringer solution containing (in mM) 200 KCl, 20 CaCl2, 1.2 MgCl2, 20 HEPES and 2.5 probenecid respectively (pH adjusted to 7.4 with KOH, with an osmolarity of 320–324 mOsm).

healthy rats = assay: In vivo haemodynamics in healthy rats (supplement); parameters: species or system rat
Text: In vivo haemodynamics in healthy rats
Experimental Animals and General Study Protocol
Rat was selected to the study as it is the most widely used rodent species in the toxicology studies performed for the small molecules during the drug development. […]
All animal experiments were made according to European Community Guidelines for the use of experimental animals and approved by Finnish National Animal Experiment Board. All studies complied with the ARRIVE guidelines, (NC3Rs Reporting Guidelines Working Group, 2010).
Specific pathogen free animals were housed in half -barrier rooms where special protecting clothing for personnel was required. Animal rooms were cleaned regularly 3 times per week and cages and bottles were […]
changed regular intervals once a week. Temperature was maintained at 22 ± 2°C and humidity at 55 ± 15%.
Light-dark cycle was lights on from 06.00 to 20.00h.
Male Sprague-Dawley rats (Harlan, Netherlands B.V.) were housed in polycarbonate cages (Makrolon® IV with stainless steel wire mesh lids). Maximally 5 rats were housed per cage with aspen chip bedding (Tapvei Ky, Kaavi, Finland). Rats had free access to water (twice filtered, Espoon Vesi) and rodent diet (SDS RM1
(P) SQC pelleted diet, Special Diet Services Ltd, Witham, England). Acclimation period before experiments was at least 5 days. Healthy 10-12 weeks aged weighing 300-400 g rats were randomized to ORM-11372, dobutamine or vehicle group.
At the end of the haemodynamic experiments, rats were terminated with an overdose of pentobarbital.
Anesthesia and ventilation
Rats were anaesthetised with isoflurane (2.25-2.5 %, Baxter) in carbogen (95 % O2 and 5 % CO2) and nitrous oxide (1:1) using a small rodent ventilator (Ugo Basile 7025, ~10 ml/kg, 60 strokes/min). The rats were infused with 0.9 % NaCl in […] at the stabilization and baseline level. Animals were placed on a heating table (+38°C). Tracheas were cannulated.
Systemic blood (SP) and left ventricular pressures (LVP) were measured with pressure transducers (BP:
Isotec, Hugo Sachs Elektronic, Germany; LVP: Mikro-Tip transducer SPR-249, Millar Instruments, USA). The signal was amplified (DC-bridge amplifier type 660, Hugo Sachs Elektronik, Germany), digitised (I/O connector block type SCB-68, National Instruments, USA), recorded and analysed (IHME 1.0.9, Fision Ltd, Finland). Left ventricular inotropic effect (LV +dP/dtmax) and relaxation (LV -dP/dtmin) and heart rate (HR) were analysed from LVP signal.
Blood sampling for the evaluation of plasma levels of the drug
At the end of each infusion, the blood samples (300-500 µl) were taken into chilled EDTA polypropylene tube (CapiJect®, Terumo) and centrifuged (4000 rpm, 10 min, at 4°C). Plasma was immediately frozen in polypropylene tubes and stored at –20°C. ORM-11372 and dobutamine were extracted from plasma samples using a liquid–liquid extraction and analysed using liquid chromatography–tandem mass spectrometry (Agilent Technologies series 1100 liquid chromatographic system and a Sciex LC-MS/MS API 4000 mass spectrometry). The lower limit of quantification for total plasma concentrations were 32.0 and 5.00 ng/ml from total for ORM-11372 and dobutamine, respectively. […]
The effects of dobutamine on blood pressure varies partially due to the use of racemate as active ingredient in the pharmaceutical formulation. (-)-dobutamine is α1-agonist and therefore causes increases in cardiac output and peripheral resistance. (+)-dobutamine acts via β1- and β2-adrenoceptors which leads to increase in heart rate and reduction in blood pressure 16.
Figure S20 Haemodynamics in healthy rats
Effects of ORM-11372 and dobutamine on haemodynamics in isoflurane anesthetized 10-12 weeks aged male Sprague-Dawley rats (Harlan, Netherlands B.V.) weighing 300-400 g. Shown are mean ± SEM and individual effects on the left ventricular contractility (LV+dP/dtmax, panel A), relaxation (LV-dP/dtmax, panel B), heart rate (panel C), and systolic arterial blood pressure (SAP, paned D). […]

| SMILES | IC50 (human NCX 1.1) | IC50 (hERG) | solubility (Solubility; read-out: Solubility class) | other results |
| --- | --- | --- | --- | --- |
| O=[N+]([O-])c1ccc(Oc2ccc3c(c2)CCC(c2ccccc2)O3)nc1 (stereo not shown) [ORM-10103] | 176 nM | – | – | IC50 (NCX; read-out: IC50 NCX forward): 960 nM; IC50 (NCX; read-out: IC50 NCX reverse): 780 nM; IC50 (hNCX1): 1850 nM; Solubility class (Solubility): Insoluble (insoluble less than 10 µg/ml) |
| O=[N+]([O-])c1cccc(-c2ccc(CNc3ccc(F)c(Cl)c3)o2)c1 [ORM‐11023] | 156 nM | – | – | – |
| O=[N+]([O-])c1ccccc1-c1ccc(CNc2ccccc2)o1 [ORM‐11024] | 875 nM | – | – | – |
| Fc1ccc(NCc2ccc(-c3ccccc3Cl)o2)cc1Cl [ORM‐11165] | 4 nM | 9000 nM | < 10 µg/mL | IC50 (L‐type calcium channel): 2000 nM |
| Fc1ccc(NCc2ccc(-c3ccc(Cl)cc3)o2)cc1Cl [ORM‐11190] | 204 nM | – | – | – |
| Fc1ccc(NCc2ccc(-c3cccc(Cl)c3)o2)cc1Cl [ORM‐11217] | 210 nM | 14600 nM | 10 to 100 µg/mL (≈ 29.7 to 297 µM) | – |
| Fc1ccc(NCc2coc(-c3ccccc3)n2)cc1Cl [ORM‐11298] | 31 nM | > 10000 nM | 10 to 100 µg/mL (≈ 33 to 330 µM) | – |
| Fc1ccc(NCc2ccc(-c3ccccn3)o2)cc1F [ORM‐11817] | 3 nM | 2400 nM | < 10 µg/mL | IC50 (L‐type calcium channel): 10400 nM |
| Fc1ccc(NCc2csc(-c3ccccc3Cl)n2)cc1F [ORM‐11863] | 2.5 nM | – | < 10 µg/mL | – |
| Fc1ccc(NCc2ccc(-c3cccnc3)o2)cc1F [ORM‐11875] | 90 nM | – | 10 to 100 µg/mL (≈ 34.9 to 349 µM) | – |
| O=[N+]([O-])c1ccccc1-c1ccc(CNc2ccc(F)c(Cl)c2)o1 [ORM‐120407, 3-chloro-4-fluoro-N-((5-(2-nitrophenyl)furan-2-yl)methyl)aniline] | 231 nM | 2100 nM | < 10 µg/mL | inhibition at 10 µM (human NCX 1.1; 10 μM, fluorescence‐based assay, read-out: NCX1.1 inhibition): 87%; IC50 (L‐type calcium channel): 3100 nM; solubility (Solubility; read-out: Solubility): < 10 µg/mL |
| CC(CCc1ccc(O)cc1)NCCc1ccc(O)c(O)c1 (stereo not shown) [dobutamine, reference compound] | – | – | – | absolute maximum positive inotropic effect (healthy rats): 59%; free plasma concentration achieving 25% positive inotropic effect (healthy rats): 25 ± 1.6 nM; free plasma concentration at absolute maximum positive inotropic effect (healthy rats): 199 ± 17 nM; free plasma concentration at the 10±2% (ORM-11372) / 16±3% (dobutamine) inotropic effect (healthy rats): 16 ± 0.8 nM; positive inotropic effect (healthy rats; at free plasma concentration 4±0.3 nM (ORM-11372), 16±0.8 nM (dobutamine)): 16±3%; increase in heart rate (healthy rats; free plasma concentration 96 nM): 15±5%; increase in heart rate (healthy rats; free plasma concentration 848 nM): 25±7%; relaxation (healthy rats; free plasma concentrations 16 to 199 nM): no effects |
